Assay results: patent US10392391B2 (Vertex Pharmaceuticals Incorporated, priority 2012, dated 2019)
Read-outs that look alike come from different tables or passages of the source.

Target: ATR kinase (full-length ATR) (Homo sapiens (Human), UniProt Q13535)
Experiment: ATR inhibition assay (radioactive-phosphate incorporation)
Format: biochemical
Method in brief: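 Ki(app) was fitted by non-linear regression to background-corrected initial rates. Full-length ATR (5 nM) phosphorylated 800 μM peptide using 10 μM [γ-33P]ATP at 25° C in Tris/HCl pH 7.5 buffer with MgCl2, DTT and 7% DMSO. After 10-minute compound pre-incubation and 24-hour reaction, phosphocellulose filters were scintillation counted.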

[1] = Ki(app), 5 nM full-length ATR, 10 μM ATP, 25° C.

Sequence of ATR kinase (full-length ATR) (Q13535 whole entry): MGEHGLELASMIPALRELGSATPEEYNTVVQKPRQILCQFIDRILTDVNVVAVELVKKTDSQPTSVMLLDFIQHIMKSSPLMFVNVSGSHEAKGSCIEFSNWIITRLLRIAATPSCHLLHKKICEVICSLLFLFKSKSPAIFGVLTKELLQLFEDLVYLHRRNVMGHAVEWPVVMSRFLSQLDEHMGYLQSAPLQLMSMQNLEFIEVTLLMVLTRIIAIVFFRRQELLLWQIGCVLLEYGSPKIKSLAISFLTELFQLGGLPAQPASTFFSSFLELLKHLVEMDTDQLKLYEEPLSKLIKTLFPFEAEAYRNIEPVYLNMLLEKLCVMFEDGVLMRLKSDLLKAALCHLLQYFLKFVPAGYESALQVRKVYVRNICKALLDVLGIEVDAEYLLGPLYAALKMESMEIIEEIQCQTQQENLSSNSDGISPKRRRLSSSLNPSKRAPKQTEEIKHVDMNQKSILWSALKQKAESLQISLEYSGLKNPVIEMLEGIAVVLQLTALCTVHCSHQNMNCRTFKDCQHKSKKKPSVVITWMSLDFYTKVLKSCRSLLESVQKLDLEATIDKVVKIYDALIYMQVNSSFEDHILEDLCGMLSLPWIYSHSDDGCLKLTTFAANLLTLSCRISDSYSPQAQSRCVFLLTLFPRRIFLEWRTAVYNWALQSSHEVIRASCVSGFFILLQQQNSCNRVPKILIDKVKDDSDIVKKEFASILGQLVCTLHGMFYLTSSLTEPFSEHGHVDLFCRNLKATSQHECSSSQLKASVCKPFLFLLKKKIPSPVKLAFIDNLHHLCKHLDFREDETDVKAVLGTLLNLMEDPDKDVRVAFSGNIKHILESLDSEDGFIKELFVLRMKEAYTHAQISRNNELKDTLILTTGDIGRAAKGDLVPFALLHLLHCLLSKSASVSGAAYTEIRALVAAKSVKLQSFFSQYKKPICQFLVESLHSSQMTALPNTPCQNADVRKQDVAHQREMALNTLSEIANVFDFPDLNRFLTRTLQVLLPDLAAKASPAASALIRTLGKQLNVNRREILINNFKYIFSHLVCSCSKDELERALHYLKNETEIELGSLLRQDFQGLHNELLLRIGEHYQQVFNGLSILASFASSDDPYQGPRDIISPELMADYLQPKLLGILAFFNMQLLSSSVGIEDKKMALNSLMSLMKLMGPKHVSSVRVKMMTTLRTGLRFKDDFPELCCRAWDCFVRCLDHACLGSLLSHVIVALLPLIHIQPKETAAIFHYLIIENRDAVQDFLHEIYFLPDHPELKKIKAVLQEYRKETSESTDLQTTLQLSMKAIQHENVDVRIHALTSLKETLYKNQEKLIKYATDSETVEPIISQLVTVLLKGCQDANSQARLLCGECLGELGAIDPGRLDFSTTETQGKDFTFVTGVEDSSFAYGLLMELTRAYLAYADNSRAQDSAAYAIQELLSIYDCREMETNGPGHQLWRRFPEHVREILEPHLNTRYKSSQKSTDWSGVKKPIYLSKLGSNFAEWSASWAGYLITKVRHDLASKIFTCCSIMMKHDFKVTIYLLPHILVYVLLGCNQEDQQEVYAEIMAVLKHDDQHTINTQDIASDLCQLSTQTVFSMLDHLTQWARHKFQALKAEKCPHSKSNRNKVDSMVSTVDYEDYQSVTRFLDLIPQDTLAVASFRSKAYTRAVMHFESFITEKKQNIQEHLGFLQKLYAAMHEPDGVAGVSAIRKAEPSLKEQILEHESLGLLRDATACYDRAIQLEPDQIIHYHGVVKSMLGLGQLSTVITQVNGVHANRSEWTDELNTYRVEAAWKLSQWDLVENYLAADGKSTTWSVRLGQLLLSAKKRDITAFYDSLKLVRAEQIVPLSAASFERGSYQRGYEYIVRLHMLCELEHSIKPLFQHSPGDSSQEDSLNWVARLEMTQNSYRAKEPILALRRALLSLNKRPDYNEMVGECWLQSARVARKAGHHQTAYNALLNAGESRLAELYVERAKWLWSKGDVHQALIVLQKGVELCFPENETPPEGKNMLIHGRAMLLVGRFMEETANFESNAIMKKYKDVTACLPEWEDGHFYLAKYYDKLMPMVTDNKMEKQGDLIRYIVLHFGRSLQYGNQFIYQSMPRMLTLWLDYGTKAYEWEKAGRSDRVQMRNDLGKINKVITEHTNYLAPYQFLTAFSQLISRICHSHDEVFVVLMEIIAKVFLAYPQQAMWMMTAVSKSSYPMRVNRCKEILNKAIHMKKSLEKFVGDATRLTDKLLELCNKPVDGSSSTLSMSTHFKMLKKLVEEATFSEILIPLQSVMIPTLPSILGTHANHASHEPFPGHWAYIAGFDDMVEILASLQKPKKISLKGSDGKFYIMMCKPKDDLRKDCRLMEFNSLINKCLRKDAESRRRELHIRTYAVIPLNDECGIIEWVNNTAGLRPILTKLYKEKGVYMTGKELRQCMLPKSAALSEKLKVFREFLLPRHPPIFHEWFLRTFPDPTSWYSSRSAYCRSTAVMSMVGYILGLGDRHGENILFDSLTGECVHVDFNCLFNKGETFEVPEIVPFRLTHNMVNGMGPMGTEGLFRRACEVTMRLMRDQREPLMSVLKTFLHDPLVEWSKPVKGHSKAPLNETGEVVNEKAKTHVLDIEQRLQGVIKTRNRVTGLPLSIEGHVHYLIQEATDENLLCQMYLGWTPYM

Nc1nn2cc(F)cnc2c1C(=O)Nc1cnccc1N1CCC(S(=O)(=O)N2CCC2)CC1 [I-N-271, 2-amino-N-(4-(4-(azetidin-1-ylsulfonyl)piperidin-1-yl)pyridin-3-yl)-6-fluoropyrazolo[1,5-a]pyrimidine-3-carboxamide]
Ki [1]: 0.01 to 1 µM

Nc1nn2cc(F)cnc2c1C(=O)Nc1cnccc1-n1cnc(C(F)(F)F)c1 [I-N-27, 2-amino-6-fluoro-N-(4-(4-(trifluoromethyl)-1H-imidazol-1-yl)pyridin-3-yl)pyrazolo[1,5-a]pyrimidine-3-carboxamide]
Ki [1]: 0.01 to 1 µM

Nc1nn2cc(F)cnc2c1C(=O)Nc1cncc(F)c1N1CCC(C(=O)N2CC(O)C2)CC1 [I-G-41, 2-amino-6-fluoro-N-(5-fluoro-4-(4-(3-hydroxyazetidine-1-carbonyl)piperidin-1-yl)pyridin-3-yl)pyrazolo[1,5-a]pyrimidine-3-carboxamide]
Ki: 1 to 5 µM

Nc1nn2cc(F)cnc2c1C(=O)Nc1cnccc1N1CCN2C(=O)CC[C@H]2C1 [I-N-217, (S)-2-amino-6-fluoro-N-(4-(6-oxohexahydropyrrolo[1,2-a]pyrazin-2(1H)-yl)pyridin-3-yl)pyrazolo[1,5-a]pyrimidine-3-carboxamide]
Ki [1]: 0.01 to 1 µM

CS(=O)(=O)c1ccc(-c2ccncc2NC(=O)c2c(N)nn3cc(F)cnc23)cc1 [I-C-61, 2-amino-6-fluoro-N-(4-(4-(methylsulfonyl)phenyl)pyridin-3-yl)pyrazolo[1,5-a]pyrimidine-3-carboxamide]
Ki [1]: 0.01 to 1 µM

Nc1nn2cc(F)cnc2c1C(=O)Nc1cncc(F)c1N1CCC(C(=O)N2CC(N3CCCC3)C2)CC1 [I-G-43, 2-amino-6-fluoro-N-(5-fluoro-4-(4-(3-(pyrrolidin-1-yl)azetidine-1-carbonyl)piperidin-1-yl)pyridin-3-yl)pyrazolo[1,5-a]pyrimidine-3-carboxamide]
Ki [1]: 0.01 to 1 µM

Nc1nn2cc(F)cnc2c1C(=O)Nc1cnccc1-c1ccccn1 [I-C-60, N-([2,4′-bipyridin]-3′-yl)-2-amino-6-fluoropyrazolo[1,5-a]pyrimidine-3-carboxamide]
Ki [1]: 0.01 to 1 µM

Nc1nn2cc(F)cnc2c1C(=O)Nc1cnccc1N1CCN(S(=O)(=O)C2CC2)CC1 [I-N-176, 2-amino-N-(4-(4-(cyclopropylsulfonyl)piperazin-1-yl)pyridin-3-yl)-6-fluoropyrazolo[1,5-a]pyrimidine-3-carboxamide]
Ki [1]: 0.01 to 1 µM

Nc1nn2cc(F)cnc2c1C(=O)Nc1cnccc1N1CCC(C(=O)N2CC3(CCO3)C2)CC1 [I-G-90, N-(4-(4-(1-oxa-6-azaspiro[3.3]heptane-6-carbonyl)piperidin-1-yl)pyridin-3-yl)-2-amino-6-fluoropyrazolo[1,5-a]pyrimidine-3-carboxamide]
Ki [1]: 0.01 to 1 µM

COC(=O)[C@H]1CC[C@H](Oc2ccncc2NC(=O)c2c(N)nn3cc(F)cnc23)CC1 [I-O-13, (1r,4)-methyl 4-((3-(2-amino-6-fluoropyrazolo[1,5-a]pyrimidine-3-carboxamido)pyridin-4-yl)oxy)cyclohexanecarboxylate]
Ki [1]: 0.01 to 1 µM

CN1CCN(C(=O)[C@H]2CC[C@@H](Oc3ccncc3NC(=O)c3c(N)nn4cc(F)cnc34)CC2)CC1 [I-O-19, 2-amino-6-fluoro-N-(4-(((1s,4s)-4-(4-methylpiperazine-1-carbonyl)cyclohexyl)oxy)pyridin-3-yl)pyrazolo[1,5-a]pyrimidine-3-carboxamide]
Ki [1]: 0.01 to 1 µM

N#CCc1cnc2c(C(=O)Nc3cnccc3N3CCNCC3)c(N)nn2c1 [I-N-89, 2-amino-6-(cyanomethyl)-N-(4-(piperazin-1-yl)pyridin-3-yl)pyrazolo[1,5-a]pyrimidine-3-carboxamide]
Ki [1]: 0.01 to 1 µM

Nc1nn2cc(Cl)cnc2c1C(=O)Nc1cnccc1OC1CCCNC1 (stereo not shown) [I-O-75, 2-amino-6-chloro-N-(4-(piperidin-3-yloxy)pyridin-3-yl)pyrazolo[1,5-a]pyrimidine-3-carboxamide]
Ki [1]: 0.01 to 1 µM

Nc1nn2cc(F)cnc2c1C(=O)Nc1cnccc1Oc1cccnc1 [I-O-7, 2-amino-6-fluoro-N-(4-(pyridin-3-yloxy)pyridin-3-yl)pyrazolo[1,5-a]pyrimidine-3-carboxamide]
Ki [1]: 0.01 to 1 µM

C[C@@H]1CN(C2COC2)CCN1c1ccncc1NC(=O)c1c(N)nn2cc(F)cnc12 [I-N-23, (R)-2-amino-6-fluoro-N-(4-(2-methyl-4-(oxetan-3-yl)piperazin-1-yl)pyridin-3-yl)pyrazolo[1,5-a]pyrimidine-3-carboxamide]
Ki [1]: 0.01 to 1 µM

CN1CCN(c2ccc(-c3ccncc3NC(=O)c3c(N)nn4cc(F)cnc34)cn2)CC1 [I-C-21, 2-amino-6-fluoro-N-(6-(4-methylpiperazin-1-yl)-[3,4′-bipyridin]-3′-yl)pyrazolo[1,5-a]pyrimidine-3-carboxamide]
Ki [1]: 0.01 to 1 µM

CS(=O)(=O)C1CCN(c2ccncc2NC(=O)c2c(N)nn3cc(F)cnc23)CC1 [I-N-190, 2-amino-6-fluoro-N-(4-(4-(methylsulfonyl)piperidin-1-yl)pyridin-3-yl)pyrazolo[1,5-a]pyrimidine-3-carboxamide]
Ki [1]: 0.01 to 1 µM

CN1CCN2CCN(c3ccncc3NC(=O)c3c(N)nn4cc(Cl)cnc34)CC2C1 (stereo not shown) [I-N-61, 2-amino-6-chloro-N-(4-(8-methylhexahydro-1H-pyrazino[1,2-a]pyrazin-2(6H)-yl)pyridin-3-yl)pyrazolo[1,5-a]pyrimidine-3-carboxamide]
Ki [1]: 0.01 to 1 µM

CN1CC(N2CCN(C(=O)C3CCN(c4c(F)cncc4NC(=O)c4c(N)nn5cc(F)cnc45)CC3)CC2)C1 [I-G-96, 2-amino-6-fluoro-N-(5-fluoro-4-(4-(4-(1-methylazetidin-3-yl)piperazine-1-carbonyl)piperidin-1-yl)pyridin-3-yl)pyrazolo[1,5-a]pyrimidine-3-carboxamide]
Ki [1]: 0.01 to 1 µM

Nc1nn2cc(Cl)cnc2c1C(=O)Nc1cnccc1Oc1cccnc1 [I-O-70, 2-amino-6-chloro-N-(4-(pyridin-3-yloxy)pyridin-3-yl)pyrazolo[1,5-a]pyrimidine-3-carboxamide]
Ki [1]: 0.01 to 1 µM

Nc1nn2cc(F)cnc2c1C(=O)Nc1cnccc1OC1CCOC1 (racemic) [I-O-15, (R,S)-2-amino-6-fluoro-N-(4-((tetrahydrofuran-3-yl)oxy)pyridin-3-yl)pyrazolo[1,5-a]pyrimidine-3-carboxamide]
Ki [1]: 0.01 to 1 µM

Nc1nn2cc(Cl)cnc2c1C(=O)Nc1cnccc1N1CCCC(N)C1 (stereo not shown) [I-N-55, 2-amino-N-(4-(3-aminopiperidin-1-yl)pyridin-3-yl)-6-chloropyrazolo[1,5-a]pyrimidine-3-carboxamide]
Ki [1]: 0.01 to 1 µM

Nc1nn2cc(Cl)cnc2c1C(=O)Nc1cnccc1O[C@@H]1CCNC1 [I-O-77, (R)-2-amino-6-chloro-N-(4-(pyrrolidin-3-yloxy)pyridin-3-yl)pyrazolo[1,5-a]pyrimidine-3-carboxamide]
Ki [1]: 0.01 to 1 µM

COCCN(C)C(=O)C1CCN(c2c(F)cncc2NC(=O)c2c(N)nn3cc(F)cnc23)CC1 [I-G-40, 2-amino-6-fluoro-N-(5-fluoro-4-(4-((2-methoxyethyl)(methyl)carbamoyl)piperidin-1-yl)pyridin-3-yl)pyrazolo[1,5-a]pyrimidine-3-carboxamide]
Ki [1]: 0.01 to 1 µM

COCCS(=O)(=O)C1CCN(c2ccncc2NC(=O)c2c(N)nn3cc(F)cnc23)CC1 [I-N-208, 2-amino-6-fluoro-N-(4-(4-((2-methoxyethyl)sulfonyl)piperidin-1-yl)pyridin-3-yl)pyrazolo[1,5-a]pyrimidine-3-carboxamide]
Ki [1]: 0.01 to 1 µM

CC(C)(O)C1CCN(c2ccncc2NC(=O)c2c(N)nn3cc(Cl)cnc23)CC1 [I-N-69, 2-amino-6-chloro-N-(4-(4-(2-hydroxypropan-2-yl)piperidin-1-yl)pyridin-3-yl)pyrazolo[1,5-a]pyrimidine-3-carboxamide]
Ki [1]: 0.01 to 1 µM

Nc1nn2cc(F)cnc2c1C(=O)Nc1cnccc1N1CCN(C2COC2)C2CC21 (stereo not shown) [I-N-112, 2-amino-6-fluoro-N-(4-(5-(oxetan-3-yl)-2,5-diazabicyclo[4.1.0]heptan-2-yl)pyridin-3-yl)pyrazolo[1,5-a]pyrimidine-3-carboxamide]
Ki: 1 to 5 µM

Cc1ccc(-c2ccncc2NC(=O)c2c(N)nn3cc(F)cnc23)cn1 [I-C-22, 2-amino-6-fluoro-N-(6-methyl-[3,4′-bipyridin]-3′-yl)pyrazolo[1,5-a]pyrimidine-3-carboxamide]
Ki [1]: 0.01 to 1 µM

Cc1cc(C(=O)N2CCN(C)CC2)ccc1-c1ccncc1NC(=O)c1c(N)nn2cc(F)cnc12 [I-C-45, 2-amino-6-fluoro-N-(4-(2-methyl-4-(4-methylpiperazine-1-carbonyl)phenyl)pyridin-3-yl)pyrazolo[1,5-a]pyrimidine-3-carboxamide]
Ki [1]: 0.01 to 1 µM

CN1CCC(OC2CCN(c3ccncc3NC(=O)c3c(N)nn4cc(F)cnc34)CC2)CC1 [I-N-154, 2-amino-6-fluoro-N-(4-(4-((1-methylpiperidin-4-yl)oxy)piperidin-1-yl)pyridin-3-yl)pyrazolo[1,5-a]pyrimidine-3-carboxamide]
Ki [1]: 0.01 to 1 µM

CN1CCN(C(=O)N2CCC(c3ccncc3NC(=O)c3c(N)nn4cc(F)cnc34)CC2)CC1 [I-C-17, 2-amino-6-fluoro-N-(4-(1-(4-methylpiperazine-1-carbonyl)piperidin-4-yl)pyridin-3-yl)pyrazolo[1,5-a]pyrimidine-3-carboxamide]
Ki [1]: 0.01 to 1 µM

Cn1ccc2c(NC(=O)c3c(N)nn4cc(F)cnc34)cncc21 [I-C-74, 2-amino-6-fluoro-N-(1-methyl-1H-pyrrolo[2,3-c]pyridin-4-yl)pyrazolo[1,5-a]pyrimidine-3-carboxamide]
Ki [1]: 0.01 to 1 µM

CN(C)C(=O)C1CN(c2ccncc2NC(=O)c2c(N)nn3cc(F)cnc23)CCO1 (stereo not shown) [I-N-234, 4-(3-(2-amino-6-fluoropyrazolo[1,5-a]pyrimidine-3-carboxamido)pyridin-4-yl)-N,N-dimethylmorpholine-2-carboxamide]
Ki [1]: 0.01 to 1 µM

CN1CCCCC1C(=O)N1CCN(c2c(F)cncc2NC(=O)c2c(N)nn3cc(F)cnc23)CC1 (stereo not shown) [I-N-214, 2-amino-6-fluoro-N-(5-fluoro-4-(4-(1-methylpiperidine-2-carbonyl)piperazin-1-yl)pyridin-3-yl)pyrazolo[1,5-a]pyrimidine-3-carboxamide]
Ki [1]: 0.01 to 1 µM
